Laboratory results as given in ChEMBL document CHEMBL1145304 (Bioorg Med Chem Lett, 2006).

Assays:
[1] = target: Sodium-dependent serotonin transporter (Homo sapiens, UniProt P31645); format: cell-based, HEK293
[2] = target: Sodium-dependent noradrenaline transporter (Homo sapiens, UniProt P23975)
Description: Inhibition of [3H]NA reuptake at NA transporter in HEK293 cells

[3] = target: Sodium-dependent dopamine transporter (Homo sapiens, UniProt Q01959)
Sodium-dependent dopamine transporter, sequence (Q01959 whole entry): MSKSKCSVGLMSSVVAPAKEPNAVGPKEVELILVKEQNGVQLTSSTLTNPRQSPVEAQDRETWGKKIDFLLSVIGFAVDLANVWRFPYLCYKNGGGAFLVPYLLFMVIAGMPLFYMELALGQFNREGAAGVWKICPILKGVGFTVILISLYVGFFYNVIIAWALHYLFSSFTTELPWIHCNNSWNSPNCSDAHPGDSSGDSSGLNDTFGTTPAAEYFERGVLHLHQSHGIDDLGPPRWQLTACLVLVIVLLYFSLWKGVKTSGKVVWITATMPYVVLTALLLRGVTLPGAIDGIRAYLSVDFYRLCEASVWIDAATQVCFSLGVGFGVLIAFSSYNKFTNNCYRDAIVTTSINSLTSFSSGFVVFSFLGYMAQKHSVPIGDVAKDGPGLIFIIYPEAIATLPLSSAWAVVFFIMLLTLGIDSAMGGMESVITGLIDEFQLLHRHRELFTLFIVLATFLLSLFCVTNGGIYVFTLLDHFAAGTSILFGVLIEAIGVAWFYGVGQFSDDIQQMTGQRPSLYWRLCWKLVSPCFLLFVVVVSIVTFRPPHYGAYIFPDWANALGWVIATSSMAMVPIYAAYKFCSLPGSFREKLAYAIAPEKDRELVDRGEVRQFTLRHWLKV
Description: Inhibition of [3H]DA reuptake at DA transporter in HEK293 cells

Sodium-dependent noradrenaline transporter, sequence (P23975 whole entry): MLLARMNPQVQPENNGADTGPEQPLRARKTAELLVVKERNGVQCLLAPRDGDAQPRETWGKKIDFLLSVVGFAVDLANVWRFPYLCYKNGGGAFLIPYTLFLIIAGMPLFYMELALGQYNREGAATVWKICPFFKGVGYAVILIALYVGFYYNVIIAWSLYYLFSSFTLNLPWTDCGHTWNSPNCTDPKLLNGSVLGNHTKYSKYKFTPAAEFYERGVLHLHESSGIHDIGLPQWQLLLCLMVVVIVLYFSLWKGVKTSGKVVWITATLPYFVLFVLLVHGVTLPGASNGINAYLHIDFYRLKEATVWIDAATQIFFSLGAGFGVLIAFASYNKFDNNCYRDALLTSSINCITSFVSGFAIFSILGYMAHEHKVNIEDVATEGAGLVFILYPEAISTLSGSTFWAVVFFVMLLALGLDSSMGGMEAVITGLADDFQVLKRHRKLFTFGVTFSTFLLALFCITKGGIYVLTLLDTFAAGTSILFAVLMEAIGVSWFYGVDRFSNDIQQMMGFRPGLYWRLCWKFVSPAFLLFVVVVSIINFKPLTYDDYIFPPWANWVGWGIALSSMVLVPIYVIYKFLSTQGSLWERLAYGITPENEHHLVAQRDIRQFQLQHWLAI
Sodium-dependent serotonin transporter, sequence (P31645 whole entry): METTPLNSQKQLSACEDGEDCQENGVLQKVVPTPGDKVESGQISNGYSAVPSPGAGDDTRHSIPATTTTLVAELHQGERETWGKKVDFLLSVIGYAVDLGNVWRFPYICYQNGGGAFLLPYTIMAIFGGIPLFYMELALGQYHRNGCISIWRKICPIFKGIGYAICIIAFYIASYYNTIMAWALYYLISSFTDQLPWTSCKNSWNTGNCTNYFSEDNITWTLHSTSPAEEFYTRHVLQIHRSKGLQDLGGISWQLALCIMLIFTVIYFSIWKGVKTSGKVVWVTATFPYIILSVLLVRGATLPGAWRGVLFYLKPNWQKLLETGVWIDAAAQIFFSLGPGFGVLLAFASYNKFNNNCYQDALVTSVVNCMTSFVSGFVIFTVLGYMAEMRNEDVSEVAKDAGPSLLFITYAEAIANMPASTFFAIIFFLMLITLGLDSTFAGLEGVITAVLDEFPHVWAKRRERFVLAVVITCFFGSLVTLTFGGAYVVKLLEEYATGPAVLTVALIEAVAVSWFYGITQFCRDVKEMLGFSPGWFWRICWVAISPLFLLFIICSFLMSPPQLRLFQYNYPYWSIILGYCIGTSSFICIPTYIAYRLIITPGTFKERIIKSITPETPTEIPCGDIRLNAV

Structure (SMILES)	IC50 [1] [µM]	IC50 [2] [µM]	IC50 [3] [µM]
c1ccc(CCC(c2ccccc2)N2CCNCC2)cc1 (centres undefined)	0.023	> 0.4	–
CCOc1ccccc1CC(c1nccs1)N1CCNCC1 (centres undefined)	0.039	0.34	–
Clc1ccccc1CC(c1ccccc1)N1CCCNCC1 (centres undefined)	0.042	0.076	–
c1ccc(C(Cc2cccc3ccccc23)N2CCNCC2)cc1 (centres undefined)	0.012	> 0.4	–
CCOc1ccccc1CC(c1cccnc1)N1CCNCC1 (centres undefined)	0.046	0.015	> 4
CCOc1ccccc1CC(c1cncs1)N1CCNCC1 (centres undefined)	0.04	0.021	–
CCOc1ccccc1CC(c1ccccc1)N1CCCNCC1 (centres undefined)	0.3	0.0088	–
c1ccc(C(Cc2ccncc2)N2CCNCC2)cc1 (centres undefined)	0.038	> 0.4	–
c1ccc(C(Cc2ccccn2)N2CCNCC2)cc1 (centres undefined)	0.23	> 0.4	–
Clc1ccccc1CC(c1cncs1)N1CCNCC1 (centres undefined)	0.012	0.12	–
Clc1ccccc1CC(c1cccnc1)N1CCNCC1 (centres undefined)	0.014	0.075	9.2
c1ccc(CCC(Cc2ccccc2)N2CCNCC2)cc1 (centres undefined)	0.023	0.048	0.4
c1ccc(C(Cc2ccc3ccccc3c2)N2CCNCC2)cc1 (centres undefined)	0.017	> 0.4	–
